Earlier results as cited in patent US20080057002A1, “Non-aqueous compositions containing urea and allantoin and methods for preparing same” (priority 2006, published 2008).

Details: expressed in g/100 g solvent @25 degree. C.

NC(=O)NC1NC(=O)NC1=O (stereo not drawn) [allantoin, (2,5-dioxo-4-imidazolidinyl) urea]
solubility of allantoin in ethanol (ethanol): < 0.1%
solubility of allantoin in propylene glycol (propylene glycol): < 0.1%
solubility of allantoin in water (water): 0.45%
